In patent EP0123485A1, “Colon-specific prodrug, the preparation and uses thereof” (priority 1983, dated 1984):

How the values were obtained:
[1] = Recovery of steroid glycoside and free steroid from intestinal contents and tissues after intragastric administration; type: in vivo, Sprague-Dawley rats; conditions: rat, in vivo, po
Protocol: Male, Sprague-Dawley rats (ca 250 g) were maintained on laboratory rat chow and water ad lib. These rats were fasted overnight (16 hr.) prior to administration of glucoside or free steroid. Water bottles were removed from the cages at least 30 min prior to drug administration. Prednisolone glucoside, 2, (7.5 mg) or dexamethasone glucoside, 1, (7.5 mg) was administered by gastric intubation as a solution (0.5 mL) of water/95% ethanol (3:1). Prednisolone, 4, (5.25 mg) or dexamethasone, 3, (5.1 mg) was administered as a solution (0.5 mL) of water/95% ethanol (1:1). After the appropriate interval of time -3, 4, 5 or 6 hr.- the animals were sacrificed by carbon dioxide anesthesia followed by thoractomy. The small intestine and cecum were removed and cut into segments. Contents were separated from the tissues by rinsing the segments with cold, 0.9% saline (5.0 mL). The contents were immediately diluted to 30 mL with methanol. The tissues were suspended in 0.01 M KH2P04 (5.0 mL). Then an internal standard, either prednisolone, 4, or dexamethasone, 3, depending on the experimental steroid, was added to all the samples. Both the contents and tissues were then homogenized with a Polytron Homogenizer (Brinkman Inst. Co.) at med. speed for 1-2 min. The contents were then diluted to 40 mL total volume with methanol. The tissues were diluted to 25 mL total volume with methanol. All the samples were centrifuged (5,000 g, 15 min) and then the supernatant solutions were passed through membrane filters (0.45 micrometers, Versapor 800). The samples (1.4 mL) were then diluted with 0.01 M KH2PO4 (0.6 mL) and 20 microliters of the resulting solution injected directly onto the HPLC column for analysis.

[2] = KM(app) and Vmax determinations (Eadie-Hofstee plots); type: in vitro ADME, rat; conditions: 15 min, 37 C
Protocol: KM(app) and VMax Determinations. The KM(app)-Vmax for the hydrolysis of p-NP-glc and p-NP-gal were determined using pooled cecal homogenates (200 mL) as described above. A range of substrate (56-1000 micromolar; final volume 2.25 mL) concentrations, spanning their apparent KM, was used for each reaction. The amount of cecal homogenate used was 0.04 mL. Velocities were obtained, in duplicate, at 37 °C in a shaking water bath and the reaction stopped by addition of 0.2 N NaOH (0.25 mL) after 15 min. Release of p-nitrophenol was measured spectrophotometrically at 403 nm. Eadie-Hofstee plots were used to determine the KM(app) (micromolar) and Vmax (micromolar/min/g) of both reactions. The wet weight (g), measured immediately after removal and pooling, was used throughout.
Again, cecal contents from four rats were pooled, weighed, diluted (100 mL, 0.01 M phosphate buffer, pH 7.0) and homogenized. A range of substrate concentrations (0.5-48 micromolar, final volume 2.5 mL) spanning the apparent KM, was used for each reaction. The amount of cecal homogenate used was 0.8 mL. Reactions were run, in duplicate, at 37°C in a shaking water bath. After 15 min, the reactions were stopped by removing aliquots (0.3 mL) and quenching them with MeOH (4.7 mL). […] Again, Eadie-Hofstee plots were used to determine the KM(app) and VMax.

[3] = Rate of hydrolysis in homogenized proximal small intestine contents; conditions: PSI contents, 37 C
[4] = Rate of hydrolysis in homogenized distal small intestine contents; conditions: for Sp. act. / Tot. act.: DSI contents, 37 C
Excerpt: (§1) (The entire small intestine was divided into two, equal length segments to give PSI and DSI.) Gastrointestinal contents were obtained from male, Sprague-Dawley rats (300-400 g) which had been maintained on a stock diet (Purina rat chow) and water ad libitum. The intestinal contents of each section were pooled from four animals for each assay. […] Following removal, the contents were quickly weighed, then diluted to 100 milliliters (stomach, PSI, and DSI) or 200 milliliters (cecum) with cold 0.01 M phosphate buffer, pH 7.0. […] Homogenates were then stored on ice (ca 30 min). […] The reaction was run at 37 °C in a shaking water bath. The reaction was stopped after 10, 20, or 30 min by addition of 0.2 N NaOH (0.25 milliliters).
(§2) Stomach and PSI contents were diluted to 50 mL with 0.01 M phosphate buffer, pH 7.0, DSI contents to 25 mL, and cecal contents to 200 mL, prior to homogenization. The homogenates (2.1 mL of stomach, PSI, and DSI and 1.7 mL of cecum) were added to the appropriate substrate solution (0.01 M phosphate buffer, pH 7.0) to give 1.0 mM substrate in a total volume of 2.5 mL. At various times up to 30 min, aliquots (0.3 mL) were removed and quenched with MeOH (4.7 mL). After centrifugation (5,000 g, 10 min), the samples were diluted (1:1) with 0.01 M KH2PO4 and 20 microliters of the resulting solution was injected directly onto the HPLC column for analysis.

[5] = Rate of hydrolysis in homogenized stomach contents; conditions: 37 C
[6] = Rate of hydrolysis in homogenized cecal contents; conditions: for hydrolysis by cecal contents, comparison in words: cecal content homogenates; for Sp. act. / Tot. act.: cecal contents, 37 C
Excerpt: as §1, §2

[7] = prodrug 0.5-48 micromolar, 0.8 mL cecal homogenate, release of free steroid by HPLC, listed as glucoside 5
[8] = 1.0 mM prodrug, release of free steroid by HPLC
[9] = prodrug 0.5-48 micromolar, 0.8 mL cecal homogenate, release of free steroid by HPLC, listed as glucoside 7
[10] = prodrug 0.5-48 micromolar, 0.8 mL cecal homogenate, release of free steroid by HPLC, listed as galactoside 9
[11] = pH 7.0, 1.0 mM p-nitrophenyl substrate, p-nitrophenol at 403 nm
[12] = pH ca 5.0, 1.0 mM p-nitrophenyl substrate, p-nitrophenol at 403 nm
[13] = p-nitrophenyl substrate 56-1000 micromolar, 0.04 mL cecal homogenate, p-nitrophenol at 403 nm

SMILES | Sp. act. [3, 8] [nmoles/min/g wet weight] | Tot. act. [3, 8] [µmol/min] | Sp. act. [4, 8] [nmoles/min/g wet weight] | Tot. act. [4, 8] [µmol/min] | Sp. act. [5, 8] [nmoles/min/g wet weight] | Tot. act. [5, 8] [µmol/min] | Sp. act. [6, 8] [nmoles/min/g wet weight] | Tot. act. [6, 8] [µmol/min] | also measured
C[C@@H]1C[C@H]2[C@@H]3CCC4=CC(=O)C=C[C@]4(C)[C@@]3(F)[C@@H](O)C[C@]2(C)[C@@]1(O)C(=O)CO [Compound 3, 9 alpha-Fluoro-11 beta, 17 alpha-21 trihydroxy-16 alpha-methyl-3, 20-dioxopregna-1,4-diene, reference compound] | – | – | – | – | – | – | – | – | recovery at 3 h [1]: 3.9%; free steroid recovered in the cecum, as equivalent of the administered dose ([1]; 5 h): 44%
CC12CCC(=O)C=C1CCC1C2C(O)CC2(C)C1CCC2(O)C(=O)COC1OC(CO)C(O)C(O)C1O [Compound 5, 11 beta, 17 alpha-Dihydroxy-3, 20-dioxopregna-4-en-21-yl beta-D-glucopyranoside] | 15.9 | 0.10 | 39.2 | 0.70 | 5.5 | 0.09 | 30.5 | 0.76 | Km [2, 7]: 5.7 µM; Vmax [2, 7]: 2.6 µM/min/g; hydrolysis by cecal contents, comparison in words [6]: hydrolyzed more slowly than the other glucoside prodrugs
CC12CCC(=O)C=C1CCC1C3CCC(O)(C(=O)COC4OC(CO)C(O)C(O)C4O)C3(C)CC(O)C12F [Compound 7, 9 alpha-Fluoro-11 beta, 17 alpha-dihydroxy-3, 20-dioxopregna-4-en-21-yl beta-D-glucopyranoside] | 12.3 | 0.08 | 33.0 | 0.43 | 7.7 | 0.14 | 42.0 | 1.4 | Km [2, 9]: 4.4 µM; Vmax [2, 9]: 2.4 µM/min/g; hydrolysis by cecal contents, comparison in words [6]: hydrolyzed more slowly than the other glucoside prodrugs
CC1CC2C3CCC4=CC(=O)C=CC4(C)C3(F)C(O)CC2(C)C1(O)C(=O)COC1OC(CO)C(O)C(O)C1O [Compound 9, 9 alpha-Fluoro-11 beta, 17 alpha-dihydroxy-16 alpha-methyl-3, 20-dioxopregna-1,4-dien-21-yl beta-D-galactopyranoside] | 11.7 | 0.004 | 29.3 | 0.41 | 2.0 | 0.004 | 322 | 6.5 | Km [2, 10]: 13.3 µM; Vmax [2, 10]: 3.9 µM/min/g; hydrolysis by DSI contents, comparison in words ([4]; homogenates of DSI contents): more resistant to hydrolysis than the other prodrugs
O=[N+]([O-])c1ccc(O[C@@H]2O[C@H](CO)[C@@H](O[C@@H]3O[C@H](CO)[C@@H](O)[C@H](O)[C@H]3O)[C@H](O)[C@H]2O)cc1 [p-NP-cel, p-nitrophenyl-beta-D-cellobioside, reference compound] | – | – | – | – | – | – | – | – | Sp. act. [3, 11]: 7.2 nmoles/min/g wet weight; Tot. act. [3, 11]: 0.05 µmol/min; Sp. act. [4, 11]: 26.0 nmoles/min/g wet weight; Tot. act. [4, 11]: 0.25 µmol/min; Sp. act. [5, 12]: 34.2 nmoles/min/g wet weight; Tot. act. [5, 12]: 0.35 µmol/min; Sp. act. [6, 11]: 96.5 nmoles/min/g wet weight; Tot. act. [6, 11]: 2.6 µmol/min
O=[N+]([O-])c1ccc(O[C@@H]2O[C@H](CO)[C@H](O)[C@H](O)[C@H]2O)cc1 [p-NP-gal, p-nitrophenyl-beta-D-galactoside, reference compound] | – | – | – | – | – | – | – | – | Km [2, 13]: 166 µM; Vmax [2, 13]: 1233 µM/min/g
O=[N+]([O-])c1ccc(O[C@@H]2O[C@H](CO)[C@@H](O)[C@H](O)[C@H]2O)cc1 [p-NP-glc, p-nitrophenyl-beta-D-glucoside, reference compound] | – | – | – | – | – | – | – | – | Km [2, 13]: 360 µM; Vmax [2, 13]: 697 µM/min/g
